In PubChem BioAssay (NCI):
Values joined by “and” are separate entries in the source; they are usually repeats but may differ in a detail not shown here. Identical values can stand only once.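 Step 1: Grow cells in 96-well plates. Step 2: Expose to compound for 48 hours at 5 concentrations. Step 3: Interpolate endpoints linearly; if unreached, use highest concentration. At the GI50, growth is halved. TGI: concentration producing complete growth inhibition.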

Experiments:
Assay in all cases: DTP human tumour cell line panel, 48 h
SK-OV-3 ovarian = tested on: SK-OV-3 ovarian
SF-539 CNS = tested on: SF-539 CNS
COLO 205 colon = tested on: COLO 205 colon
SK-MEL-28 melanoma = tested on: SK-MEL-28 melanoma
UACC-257 melanoma = tested on: UACC-257 melanoma
UACC-62 melanoma = tested on: UACC-62 melanoma
CCRF-CEM leukemia = tested on: CCRF-CEM leukemia
OVCAR-4 ovarian = tested on: OVCAR-4 ovarian
U251 CNS = tested on: U251 CNS
NCI/ADR-RES ovarian = tested on: NCI/ADR-RES ovarian

SMILES | TGI (SK-OV-3 ovarian) | TGI (SF-539 CNS) | TGI (COLO 205 colon) | TGI (SK-MEL-28 melanoma) | TGI (UACC-257 melanoma) | TGI (UACC-62 melanoma) | TGI (CCRF-CEM leukemia) | TGI (OVCAR-4 ovarian) | GI50 (SK-OV-3 ovarian) | GI50 (U251 CNS) | TGI (U251 CNS) | GI50 (NCI/ADR-RES ovarian) | TGI (NCI/ADR-RES ovarian) | GI50 (COLO 205 colon) | GI50 (SK-MEL-28 melanoma) | GI50 (UACC-257 melanoma) | GI50 (UACC-62 melanoma) | GI50 (CCRF-CEM leukemia) | GI50 (OVCAR-4 ovarian) | GI50 (SF-539 CNS)
COc1cc(/C=C(\C#N)C(=O)c2ccccc2)ccc1OCc1ccccc1 | > 100 µM | > 100 µM | > 100 µM | > 100 µM | > 100 µM | > 100 µM | > 100 µM | > 100 µM | – | – | – | – | – | – | – | – | – | – | – | –
COc1cc(OC)c(/C=C/S(=O)(=O)Cc2cnc(OC)c(N)c2)c(OC)c1 | > 100 µM | – | < 0.0322 µM | > 100 µM | > 100 µM | > 100 µM | > 100 µM | > 100 µM | < 0.0211 µM | < 0.0224 µM | > 100 µM | < 0.01 µM | > 100 µM | < 0.0169 µM | 20.4 µM | > 62 µM | < 0.01 µM | < 0.0204 µM | < 0.0456 µM | –
CC[C@@H]1OC2(C)CC(S(=O)(=O)c3ccccc3O)CC1O2 (stereo partly specified) | > 100 µM | > 100 µM | > 100 µM | > 100 µM | > 100 µM | > 100 µM | > 100 µM | > 100 µM | – | – | > 100 µM | – | – | – | – | – | – | – | – | –
C=CC1(C(=O)O)CCC(C(C)(C)C)CC1 (stereo unspecified) | > 100 µM | > 100 µM | > 100 µM | – | > 100 µM | > 100 µM | – | > 100 µM | – | – | > 100 µM | – | – | – | – | – | – | – | – | –
Cc1c[nH]c2c(O)cc3c(c12)[C@H](CCl)CN3C(=O)c1cc2cc(NC(=O)Nc3ccc4[nH]c(C(=O)N5C[C@@H](CCl)c6c5cc(O)c5[nH]cc(C)c65)cc4c3)ccc2[nH]1 | 26.7 nM and > 100 µM and 8.88 µg/mL | – | – | – | 42.4 µM and 0.00318 µg/mL | – | – | 48 µM | – | – | – | – | – | 0.0137 µM | – | 1.27 ng/mL | – | – | – | –
CC(C)CS(=O)(=O)/C(=C(\c1ccc(Br)cc1)S(=O)(=O)CC(C)C)c1ccc(Br)cc1 | – | > 100 µM | > 100 µM | > 100 µM | > 100 µM | > 100 µM | > 100 µM | > 100 µM | – | – | > 100 µM | – | – | – | – | – | – | – | – | –
NNC(=O)/C(=C/c1ccc(Cl)c(Cl)c1)NC(=O)c1ccccc1 | – | – | > 100 µM | > 100 µM | > 100 µM | > 100 µM | > 100 µM | > 100 µM | – | – | > 100 µM | – | – | – | – | – | – | – | – | –
COc1cc(Cl)c2c3c(c(C(C)=O)oc13)CCC2 | > 100 µM | > 100 µM | > 100 µM | > 100 µM | > 100 µM | > 100 µM | > 100 µM | > 100 µM | – | – | > 100 µM | – | – | – | – | – | – | – | – | –
CC1C[C@@]2(c3ccccc3)C(=O)CCC[C@H]2N1 (stereo partly specified) | > 100 µM | > 100 µM | – | > 100 µM | > 100 µM | > 100 µM | > 100 µM | > 100 µM | – | – | > 100 µM | – | – | – | – | – | – | – | – | –
COc1ccc(-c2onc(-c3ccc([N+](=O)[O-])cc3)c2C2=NCCN2)cc1 | – | > 100 µM | > 100 µM | > 100 µM | 52.1 µM | > 100 µM | > 100 µM | > 100 µM | – | – | > 100 µM | – | – | – | – | – | – | – | – | –
COc1ccccc1N1C(=O)/C(=C/c2ccc(N(CCC#N)CCC#N)cc2C)N=C1c1cc([N+](=O)[O-])ccc1Cl | > 100 µM | > 100 µM | > 100 µM | > 100 µM | > 100 µM | – | > 100 µM | 71.7 µM | – | – | > 100 µM | – | – | – | – | – | – | – | – | –
O=C(/C=C/c1ccc([N+](=O)[O-])o1)N1CCN(Cc2ccccc2)CC1 | > 100 µM | 19.4 µM | – | 16.9 µM | 20.8 µM | 20.6 µM | 27.4 µM | 29.7 µM | – | – | 28.1 µM | – | – | – | – | – | – | – | – | –
COC(=O)c1s/c(=N\C(=S)N(C)C)n(-c2ccccc2)c1C(=O)OC | > 100 µM | > 100 µM | > 100 µM | > 100 µM | > 100 µM | > 100 µM | – | > 100 µM | – | – | > 100 µM | – | – | – | – | – | – | – | – | –
CCCCc1c2c(nc3c1CCC/C3=C\c1ccccc1)C(=O)CCC2 | 67.2 µM | 33.2 µM | 48.6 µM | 41.8 µM | 44.8 µM | 44 µM | 61.7 µM | 67.9 µM | – | – | 34 µM | – | – | – | – | – | – | – | – | –
CCNC(=O)CCN(C(=O)O)S(=O)(=O)c1ccc(NC(=O)c2ccccc2)cc1 | > 100 µM | > 100 µM | > 100 µM | > 100 µM | > 100 µM | > 100 µM | > 100 µM | > 100 µM | – | – | > 100 µM | – | – | – | – | – | – | – | – | –
Cc1cc(I)cc(CN(C)CCCN2CCSCC2)c1O | > 100 µM | 62.7 µM | 55.3 µM | 87.6 µM | 92.1 µM | > 100 µM | – | > 100 µM | 35.4 µM | 33.9 µM | 95.6 µM | 24.8 µM | 76.5 µM | 25.2 µM | 27.9 µM | 26.4 µM | 32 µM | – | 44.7 µM | 23.4 µM
Cn1ccnc1CC(C)(O)c1ccccc1 (stereo unspecified) | > 100 µM | > 100 µM | > 100 µM | > 100 µM | > 100 µM | > 100 µM | – | > 100 µM | – | – | > 100 µM | – | > 100 µM | – | – | – | – | – | – | –
CCCCOC(=O)NC(=O)c1cn(CCCOC(=O)CCCCCCCCC(=O)OCCCn2cc(C(=O)NC(=O)OCCCC)c(=O)[nH]c2=O)c(=O)[nH]c1=O | > 100 µM | > 100 µM | > 100 µM | > 100 µM | > 100 µM | > 100 µM | > 100 µM | > 100 µM | – | – | > 100 µM | – | – | – | – | – | – | – | – | –
CCOC(=O)C(N)C[S][Sn]([CH3])([CH3])[Cl] (stereo unspecified) | > 100 µM | > 100 µM | > 100 µM | > 100 µM | > 100 µM | > 100 µM | > 100 µM | > 100 µM | > 100 µM | > 100 µM | > 100 µM | – | – | > 100 µM | > 100 µM | > 100 µM | 65.9 µM | > 55.2 µM | > 100 µM | > 100 µM
COC(=O)C1C(C(=O)OC)C2(OC)c3ccccc3-c3ccccc3C12 (stereo unspecified) | > 100 µM | > 100 µM | 31.3 µM | > 100 µM | > 100 µM | > 100 µM | 64.3 µM | > 100 µM | – | – | > 100 µM | – | – | – | – | – | – | – | – | –
O=C1OC(CC(=O)c2ccc(Cl)c(Cl)c2)C(Cl)=C1Cl (stereo unspecified) | > 100 µM | > 100 µM | > 100 µM | > 100 µM | > 100 µM | > 100 µM | 62.5 µM | > 100 µM | – | – | > 100 µM | – | – | – | – | – | – | – | – | –
